Reference: ChEMBL document CHEMBL3044820, “Evaluation of Benzenesulfonanilide Derivatives for the Control of Crucifers Clubroot” (1996)

Tests used:
Assay type in all cases: functional
Plasmodiophora brassicae [1] = assay: Fungicidal activity against clubroot disease causing Plasmodiophora brassicae infested Brassica campestris under greenhouse condition assessed as disease incidence at 2 kg a.i/ha treated to soil measured after 40 to 50 days
Plasmodiophora brassicae [2] = assay: Fungicidal activity against clubroot disease causing Plasmodiophora brassicae infested Brassica campestris under greenhouse condition assessed as disease incidence at 4 kg a.i/ha treated to soil measured after 40 to 50 days
Plasmodiophora brassicae [3] = assay: Fungicidal activity against clubroot disease causing Plasmodiophora brassicae infested Brassica campestris under greenhouse condition assessed as disease incidence at 0.5 kg a.i/ha treated to soil measured after 40 to 50 days

Row | SMILES | Activity (Plasmodiophora brassicae [1]) [%] | Activity (Plasmodiophora brassicae [2]) [%] | Activity (Plasmodiophora brassicae [3]) [%]
1 | O=[N+]([O-])c1ccc(NS(=O)(=O)c2ccccc2)c(Cl)c1 | 0 | >91 | 
2 | Cc1ccc(S(=O)(=O)Nc2ccc(F)cc2)cc1 |  | 0 | 
3 | O=[N+]([O-])c1ccc(NS(=O)(=O)c2ccccc2[N+](=O)[O-])cc1 | 0 | 51 | 
4 | O=[N+]([O-])c1ccc(NS(=O)(=O)c2ccc([N+](=O)[O-])cc2)cc1 | 0 | 0 | 
5 | O=[N+]([O-])c1ccc(S(=O)(=O)Nc2ccc([N+](=O)[O-])cc2Cl)cc1 | 0 | 0 | 
6 | O=[N+]([O-])c1cccc(S(=O)(=O)Nc2ccc([N+](=O)[O-])cc2Cl)c1 | 26 | 71 | 
7 | Cc1ccc(S(=O)(=O)Nc2c(C)cccc2[N+](=O)[O-])cc1[N+](=O)[O-] | 0 | 26 | 
8 | Cc1ccc([N+](=O)[O-])cc1NS(=O)(=O)c1ccc(Cl)c([N+](=O)[O-])c1 |  | 0 | 
9 | COc1ccc([N+](=O)[O-])cc1NS(=O)(=O)c1ccccc1[N+](=O)[O-] |  | 0 | 
10 | COc1ccc([N+](=O)[O-])cc1NS(=O)(=O)c1ccc([N+](=O)[O-])cc1 |  | 0 | 
11 | Cc1ccc(S(=O)(=O)Nc2ccc(Br)cc2)cc1 |  | 0 | 
12 | Cc1ccc(S(=O)(=O)Nc2ccc([N+](=O)[O-])cc2C)c(C)c1 | 0 | 0 | 
13 | O=[N+]([O-])c1ccc(NS(=O)(=O)c2ccc(Cl)cc2)c(Cl)c1 | >91 | >91 | 
14 | N#Cc1cccc(S(=O)(=O)Nc2ccc([N+](=O)[O-])cc2Cl)c1 | 0 | 0 | 
15 | O=[N+]([O-])c1ccc(NS(=O)(=O)c2ccc(Cl)c(Cl)c2)c(Cl)c1 | 26 | >91 | 
16 | O=[N+]([O-])c1cc(Cl)c(NS(=O)(=O)c2ccccc2)c(Cl)c1 | 0 | >91 | 
17 | Cc1ccc(S(=O)(=O)Nc2ccc([N+](=O)[O-])cc2)cc1[N+](=O)[O-] | 0 | 26 | 
18 | Cc1cc([N+](=O)[O-])ccc1NS(=O)(=O)c1ccc(C)c([N+](=O)[O-])c1 | 0 | 0 | 
19 | Cc1cc([N+](=O)[O-])ccc1NS(=O)(=O)c1ccc([N+](=O)[O-])cc1 | 0 | 0 | 
20 | Cc1cc([N+](=O)[O-])ccc1NS(=O)(=O)c1cccc(C#N)c1 | 0 | 0 | 

Row | SMILES | Activity (Plasmodiophora brassicae [1]) [%] | Activity (Plasmodiophora brassicae [2]) [%] | Activity (Plasmodiophora brassicae [3]) [%]
21 | Cc1cc([N+](=O)[O-])ccc1NS(=O)(=O)c1ccc(Cl)cc1 | 0 | >91 | 
22 | Cc1ccc(S(=O)(=O)Nc2ccc([N+](=O)[O-])cc2C)cc1 | 0 | 0 | 
23 | Cc1ccc(C)c(S(=O)(=O)Nc2ccc([N+](=O)[O-])cc2C)c1 | 26 | >91 | 
24 | O=S(=O)(Nc1ccc(C(F)(F)F)cc1)c1cccc(C(F)(F)F)c1 |  | 0 | 
25 | O=S(=O)(Nc1ccc(C(F)(F)F)cc1)c1ccc(Cl)c(Cl)c1 | 26 | >91 | 0
26 | N#Cc1cccc(S(=O)(=O)Nc2ccc(C(F)(F)F)cc2)c1 | 0 | 26 | 
27 | N#Cc1cccc(S(=O)(=O)Nc2ccc(Cl)cc2Cl)c1 |  | 0 | 
28 | O=S(=O)(Nc1ccccc1Cl)c1cc(C(F)(F)F)ccc1Cl |  | 0 | 
29 | O=S(=O)(Nc1ccc(C(F)(F)F)cc1Cl)c1cccc(C(F)(F)F)c1 | >91 | >91 | >91
30 | O=S(=O)(Nc1ccc(C(F)(F)F)cc1Cl)c1cc(C(F)(F)F)ccc1Cl | >91 | >91 | >91
31 | O=S(=O)(Nc1ccc(C(F)(F)F)cc1Cl)c1ccc(Cl)c(Cl)c1 | >91 | >91 | 51
32 | O=S(=O)(Nc1ccc(C(F)(F)F)cc1Cl)c1ccc(Cl)c(C(F)(F)F)c1 | >91 | >91 | 26
33 | O=S(=O)(Nc1ccc(C(F)(F)F)cc1Cl)c1ccc(Cl)cc1 | >91 | >91 | 26
34 | Cc1ccc(S(=O)(=O)Nc2ccc(C(F)(F)F)cc2Cl)cc1 | 0 | 51 | 
35 | N#Cc1cccc(S(=O)(=O)Nc2ccc(C(F)(F)F)cc2Cl)c1 | 0 | 51 | 
36 | O=S(=O)(Nc1cc(C(F)(F)F)ccc1Cl)c1cccc(C(F)(F)F)c1 | >91 | >91 | 0
37 | N#Cc1ccc(NS(=O)(=O)c2cccc(C(F)(F)F)c2)cc1 |  | 0 | 
38 | N#Cc1ccc(NS(=O)(=O)c2ccc(Cl)c(Cl)c2)cc1 |  | 0 | 
39 | N#Cc1ccc(NS(=O)(=O)c2cccc(C(F)(F)F)c2)c(Cl)c1 | 51 | >91 | 0
40 | COC(=O)c1ccc(NS(=O)(=O)c2cccc(C(F)(F)F)c2)cc1 |  | 0 | 

Row | SMILES | Activity (Plasmodiophora brassicae [1]) [%] | Activity (Plasmodiophora brassicae [2]) [%] | Activity (Plasmodiophora brassicae [3]) [%]
41 | CCOC(=O)c1ccc(NS(=O)(=O)c2cccc(C(F)(F)F)c2)cc1 | 0 | 0 | 
42 | CCCOC(=O)c1ccc(NS(=O)(=O)c2cccc(C(F)(F)F)c2)cc1 | 0 | 0 | 
43 | CCOC(=O)c1ccc(NS(=O)(=O)c2ccc(Cl)cc2)c(Cl)c1 |  | 0 | 
44 | COC(=O)c1ccc(NS(=O)(=O)c2ccc(Cl)c(C(F)(F)F)c2)c(Cl)c1 |  | 0 | 
45 | COC(=O)c1ccc(NS(=O)(=O)c2ccc(Cl)c(Cl)c2)c(Cl)c1 |  | 0 | 
46 | CN(C)C(=O)c1ccc(NS(=O)(=O)c2cccc(C(F)(F)F)c2)cc1 |  | 0 | 
47 | CN(C)C(=O)c1ccc(NS(=O)(=O)c2cccc(C(F)(F)F)c2)c(Cl)c1 |  | 0 | 
48 | CN(C)C(=O)c1ccc(NS(=O)(=O)c2ccc(Cl)c(Cl)c2)c(Cl)c1 |  | 0 | 
49 | O=[N+]([O-])c1cc(Cl)c(NS(=O)(=O)c2ccc(Cl)cc2)c(Cl)c1 | >91 | >91 | 0
50 | Cc1ccc(NS(=O)(=O)c2ccc(C)c([N+](=O)[O-])c2)c([N+](=O)[O-])c1 |  | 0 | 
51 | Cc1ccc(NS(=O)(=O)c2ccc([N+](=O)[O-])cc2)c([N+](=O)[O-])c1 |  | 0 | 
52 | Cc1ccc(S(=O)(=O)Nc2cccc([N+](=O)[O-])c2)cc1[N+](=O)[O-] |  | 0 | 
53 | O=[N+]([O-])c1cccc(NS(=O)(=O)c2ccccc2[N+](=O)[O-])c1 |  | 0 | 
54 | O=[N+]([O-])c1cccc(NS(=O)(=O)c2cccc([N+](=O)[O-])c2)c1 |  | 0 | 
55 | Cc1ccc(S(=O)(=O)Nc2cc([N+](=O)[O-])ccc2Cl)cc1[N+](=O)[O-] | 0 | 26 | 
56 | Cc1ccc(S(=O)(=O)Nc2ccc(F)c([N+](=O)[O-])c2)cc1[N+](=O)[O-] | 26 | 51 | 
57 | Cc1ccc([N+](=O)[O-])cc1NS(=O)(=O)c1ccc(C)c([N+](=O)[O-])c1 |  | 0 | 
58 | COc1ccc([N+](=O)[O-])cc1NS(=O)(=O)c1cccc([N+](=O)[O-])c1 |  | 0 | 
59 | Cc1ccc([N+](=O)[O-])cc1NS(=O)(=O)c1ccc([N+](=O)[O-])cc1 |  | 0 | 
60 | O=[N+]([O-])c1ccc(S(=O)(=O)Nc2cccc([N+](=O)[O-])c2)cc1 |  | 0 | 
